Experimental data from patent US11118160B2, “Probiotic composition for enhancing an insects resistance to a pesticide” (The Regents of the University of California, priority 2017, dated 2021).

Columns and labels:
[1] = tested on: Acetobacter in the insect gut; test: Remodeling of the gut microbiome in response to pesticide exposure (FIG. 1); type: in vivo, Drosophila melanogaster; conditions: exposure of flies
Protocol: (§1) The immediate and long-term responses of the gut microbiome to the top ten most utilized herbicides in the United States are measured using the model organism Drosophila melanogaster. By utilizing both gnotobiotic and wild-type flies in these perturbations, effects specifically due to the microbiome are isolated. Based on the results of the fly model, compounds are tested in mice in pre-adolescent exposure scenarios and long-term effects. As in the fly, genomic and metabolomics techniques are used. Detailed, life course assays throughout 12-week span would provide an extensive map of the dynamic composition of mammalian gut microbiomes. Identification of microbiome chemical and genetic interactions are obtained by utilizing the collaborative cross mice and also specified microbial compositions. Pesticide-induced changes in behavior are correlated with changes in the microbiome, while controlling for genetic background.
AIM 1 Screen 20 most commonly used agricultural pesticides in the United States. Determine which pesticides impact microbiome composition in adult flies, leveraging the viability of germ-free animals and rapid life cycle. Measure the immediate (2 hrs) and long-term (10 days) responses of the microbiome to exposure using methods described below.
1C) 16S-seq and microarray of microbiome before and after perturbation to quantify all microbial species and their transcriptomes. […]

[2] = tested on: Drosophila melanogaster; test: Fly behavioral phenotype after pesticide exposure; type: in vivo; conditions: exposed flies
Source text: 1D) Automated behavioral screening in 2D population cages with social affinity, aggression, and mating behavioral quantitative phenotypes. These are ideal because they integrate many aspects of the perturbed animal system, and will allow one skilled in the art to identify subtle neurological phenotypes may be missed by other modalities.
Fly behavioral studies: A 2D cage design with CCD video and fly tracking software is utilized widely by the community (19270697). This techniques enables the automated quantification of social affinity, aggression, and mating behavioral phenotypes.

[3] = tested on: Drosophila melanogaster; test: Host genome-wide transcription response to chronic pesticide exposure (FIGS. 4-5); type: in vivo; conditions: 2 mM atrazine
Source text: 1C) 16S-seq and microarray of microbiome before and after perturbation to quantify all microbial species and their transcriptomes. For treatments with strong effects, sequence the fly gut transcriptome (RNA-seq) to determine gene networks and pathways affected by exposure.

[4] = tested on: Drosophila melanogaster; test: Survival of wild-type and gnotobiotic / germ free flies exposed to atrazine (FIGS. 5-6); type: in vivo
Protocol: as §1
Axenic adult flies are generated and exposures are recapitulated. […] Further, GF flies are fully rescued and wild-type survival curves are restored by feeding flies the bacterial culture prior to exposure. Similar rescue experiments with other microbes are attempted, none of which are rescued.

| SMILES | effect on Acetobacter in the insect gut [1] | behavioral phenotype induced [2] | host response to exposure (transcription) [3] | survival of exposed germ free (GF) flies vs control flies with wild-type microbiomes ([4]; axenic adult flies) | lethality to the host ([4]; flies, extremely high doses) | susceptibility to toxicity, gnotobiotic flies lacking the atrazine metabolism pathway vs wild-type strains ([4]; gnotobiotic flies vs wild-type strains having the pathway) |
| --- | --- | --- | --- | --- | --- | --- |
| CCNc1nc(Cl)nc(NC(C)C)n1 [Atrazine, atrazine] | induce the collapse of Acetobacter | induces a hyperactive phenotype | induces an adaptive response associated largely with the transport of lipids | die earlier than control flies | not deadly at extremely high doses | significantly more susceptible to toxicity |
| C[n+]1ccc(-c2cc[n+](C)cc2)cc1 [Paraquat, paraquat] | induce the collapse of Acetobacter |  |  |  |  |  |
